Key:
SCT adult rats [1] = assay: Axonal regeneration after SCT (GAP43, 5-HT/GFAP immunostaining, BDA tracing); type: in vivo, rat; conditions: for number of GAP43 axons versus control: especially 1 mm caudal to the injury epicenter
Method: (§1) Rats were randomly divided into the following three experimental groups: 1) untrained + placebo, 2) untrained + SM-345431 and 3) trained + SM-345431. SCT was performed, and SM-345431 or placebo was administered at the lesion site via the newly developed DDS, which is described in detail below. Starting 1 week post-injury, treadmill training commenced with a BSS. Kinematic tests were performed monthly for 3 months after SCT using a rodent robotic device (Rodent robot 3000, Robomedica Inc.) that primarily assessed the performance of plantar stepping on a treadmill. Treadmill training was continued throughout the experimental period.
(§2) A total of 53 adult female Sprague-Dawley rats (200-250 g, 10-12 weeks old) were used in this study (3 rats died during the experimental period and were excluded from the statistical analysis). All procedures were approved by the experimental animal care committee of Keio University, School of Medicine and Murayama Medical Center (approval #12-8). All rats were anesthetized with an intraperitoneal injection of ketamine (100 mg/kg)/xylazine (10 mg/kg). The spinal cord at the level of the T10 lamina was exposed by T10 laminectomy, and the dorsal dura mater was opened. The exposed spinal cord was cut along the inner edge of the vertebra with a sharp micro-scissor. Two more cuts were made at the gap of the transected spinal cord by a scalpel to ensure total transection. SM-345431 or placebo was administered to the transected site via the newly developed DDS as described in detail below (Figure 1G-I). After these procedures, the back muscles and skin were closed. Rats were kept warm in an incubator (37°C) after surgery. To prevent dehydration in the rats, 10 ml of saline was subcutaneously injected daily until day 7. Ampicillin (0.4 g/kg) was also injected intramuscularly daily to prevent infection until day 7. The bladder was evacuated manually until autonomous emptying of the bladder was achieved. The re-transection procedure was performed at the same level as the primary SCT (15 rats total; 5 rats from each group). Kinematic data were recorded using similar procedures prior to re-transection surgery (on the same day) and on the day following re-transection surgery. For CST tracing, 10% BDA was injected as follows. Nine weeks after SM-345431 or placebo administration, BDA (10000 MW, Molecular Probes) was injected into six different sites of the sensorimotor cortices of the rats under general anesthesia (site 1: 2.0 mm lateral, 0 mm to bregma; site 2: 2.0 mm lateral, 2 mm posterior to bregma; site 3: 2.0 mm lateral, 4 mm posterior to bregma; site 4: 4 mm lateral, 0 mm to bregma; site 5: 4 mm lateral, 2 mm posterior to bregma and site 6: 4 mm lateral, 4 mm posterior to bregma). For each site, injections were performed at two different depths (1.2 mm and 1.6 mm), and 3 μl of 10% BDA was injected at a rate of 0.15 μl/min using a micro-injector. Three weeks after the BDA injection, rats were sacrificed and used for immunohistochemistry.
A novel matrix silicone preparation was developed to allow continuous drug delivery at the site of injury. The amount of drug released from this matrix silicone preparation in vitro was measured as described in Figure 1. Matrix silicone sheets (0.3 mm thick) containing SM-345431 were trimmed into 3-mm-square pieces to fit into the opened dura. After SCT, one piece of silicone sheet was placed on the transected spinal cord gap so that it could act on the spinal cord directly.
Twelve weeks after SCT, rats were deeply anaesthetized by an intraperitoneal injection of 14% chloral hydrate and then perfused intracardially with 4% paraformaldehyde (PFA) in 0.1 M phosphate-buffered saline (PBS). The spinal cord tissues were dissected and post-fixed in 4% PFA (24 h) and placed in 10% sucrose in 0.1 M PBS (24 h) followed by 30% sucrose in 0.1 M PBS (24 h). All the rats other than 3 rats died during the experimental period were used for the histological analysis. […]

SCT adult rats [2] = assay: Angiogenesis after SCT (RECA-1 immunostaining); type: in vivo, rat; conditions: for total immunostained area of vessels with lumen diameters larger than 20 μm versus control: 3 mm and 1 mm rostral/caudal to the lesion epicenter
Method: as §1
A total of 53 adult female Sprague-Dawley rats (200-250 g, 10-12 weeks old) were used in this study (3 rats died during the experimental period and were excluded from the statistical analysis). All procedures were approved by the experimental animal care committee of Keio University, School of Medicine and Murayama Medical Center (approval #12-8). All rats were anesthetized with an intraperitoneal injection of ketamine (100 mg/kg)/xylazine (10 mg/kg). The spinal cord at the level of the T10 lamina was exposed by T10 laminectomy, and the dorsal dura mater was opened. The exposed spinal cord was cut along the inner edge of the vertebra with a sharp micro-scissor. Two more cuts were made at the gap of the transected spinal cord by a scalpel to ensure total transection. SM-345431 or placebo was administered to the transected site via the newly developed DDS as described in detail below (Figure 1G-I). After these procedures, the back muscles and skin were closed. Rats were kept warm in an incubator (37°C) after surgery. To prevent dehydration in the rats, 10 ml of saline was subcutaneously injected daily until day 7. Ampicillin (0.4 g/kg) was also injected intramuscularly daily to prevent infection until day 7. The bladder was evacuated manually until autonomous emptying of the bladder was achieved. […] Kinematic data were recorded using similar procedures prior to re-transection surgery (on the same day) and on the day following re-transection surgery. […]

ROCK-I = ROCK-I (Homo sapiens, UniProt Q13464); assay: Kinase inhibition test; type: biochemical
Sequence of ROCK-I (Q13464 whole entry, species assumed): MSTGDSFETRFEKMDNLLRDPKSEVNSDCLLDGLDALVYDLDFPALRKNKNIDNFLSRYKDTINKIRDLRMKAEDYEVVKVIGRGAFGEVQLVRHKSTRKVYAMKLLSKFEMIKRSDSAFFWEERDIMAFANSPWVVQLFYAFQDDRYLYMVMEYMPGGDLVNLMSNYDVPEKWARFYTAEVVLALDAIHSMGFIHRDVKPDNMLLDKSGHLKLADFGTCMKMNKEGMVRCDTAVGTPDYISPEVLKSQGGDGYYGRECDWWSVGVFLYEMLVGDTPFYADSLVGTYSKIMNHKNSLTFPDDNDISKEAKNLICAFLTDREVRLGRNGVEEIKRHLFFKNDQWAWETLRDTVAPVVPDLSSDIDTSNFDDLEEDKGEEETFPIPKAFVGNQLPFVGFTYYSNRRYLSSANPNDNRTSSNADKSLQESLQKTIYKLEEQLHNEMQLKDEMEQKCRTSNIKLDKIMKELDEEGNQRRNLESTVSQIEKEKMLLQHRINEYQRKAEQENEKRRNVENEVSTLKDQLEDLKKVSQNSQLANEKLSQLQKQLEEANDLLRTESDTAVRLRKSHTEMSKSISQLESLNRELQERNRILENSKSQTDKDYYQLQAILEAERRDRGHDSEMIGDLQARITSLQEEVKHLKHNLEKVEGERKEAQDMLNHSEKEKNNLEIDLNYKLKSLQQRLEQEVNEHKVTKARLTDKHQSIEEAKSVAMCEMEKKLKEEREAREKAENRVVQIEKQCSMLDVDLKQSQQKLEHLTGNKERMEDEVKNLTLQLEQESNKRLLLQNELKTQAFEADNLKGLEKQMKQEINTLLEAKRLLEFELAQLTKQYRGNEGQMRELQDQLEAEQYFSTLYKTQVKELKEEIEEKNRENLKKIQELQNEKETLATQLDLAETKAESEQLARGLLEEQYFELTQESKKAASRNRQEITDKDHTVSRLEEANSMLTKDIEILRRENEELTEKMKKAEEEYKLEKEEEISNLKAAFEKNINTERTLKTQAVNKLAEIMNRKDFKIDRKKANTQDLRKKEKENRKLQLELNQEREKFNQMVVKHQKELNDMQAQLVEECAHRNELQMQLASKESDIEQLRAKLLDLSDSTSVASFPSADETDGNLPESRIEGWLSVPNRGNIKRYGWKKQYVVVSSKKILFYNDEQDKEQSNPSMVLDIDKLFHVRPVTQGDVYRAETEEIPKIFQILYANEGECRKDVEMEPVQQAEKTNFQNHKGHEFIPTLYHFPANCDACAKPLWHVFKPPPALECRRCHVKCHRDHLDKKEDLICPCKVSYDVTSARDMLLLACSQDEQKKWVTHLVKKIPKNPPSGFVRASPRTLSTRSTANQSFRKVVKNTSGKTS
Source text: (§3) Table 2 Pharmacological profile of SM-345431 (part 2) | column: IC50 (μm)

FGFR3 = FGFR3 (Homo sapiens, UniProt P22607); assay: Kinase inhibition test; type: biochemical
Source text: as §3

EphA2 = EphA2 (Homo sapiens, UniProt P29317); assay: Kinase inhibition test; type: biochemical
Source text: as §3

PKCγ = PKCγ (Homo sapiens, UniProt P05129); assay: Kinase inhibition test; type: biochemical
Source text: as §3

MEK1 = MEK1 (Homo sapiens, UniProt Q02750); assay: Kinase inhibition test; type: biochemical
Source text: as §3

PKBα = PKBα (Homo sapiens, UniProt P31749); assay: Kinase inhibition test; type: biochemical
Sequence of PKBα (P31749 whole entry, species assumed): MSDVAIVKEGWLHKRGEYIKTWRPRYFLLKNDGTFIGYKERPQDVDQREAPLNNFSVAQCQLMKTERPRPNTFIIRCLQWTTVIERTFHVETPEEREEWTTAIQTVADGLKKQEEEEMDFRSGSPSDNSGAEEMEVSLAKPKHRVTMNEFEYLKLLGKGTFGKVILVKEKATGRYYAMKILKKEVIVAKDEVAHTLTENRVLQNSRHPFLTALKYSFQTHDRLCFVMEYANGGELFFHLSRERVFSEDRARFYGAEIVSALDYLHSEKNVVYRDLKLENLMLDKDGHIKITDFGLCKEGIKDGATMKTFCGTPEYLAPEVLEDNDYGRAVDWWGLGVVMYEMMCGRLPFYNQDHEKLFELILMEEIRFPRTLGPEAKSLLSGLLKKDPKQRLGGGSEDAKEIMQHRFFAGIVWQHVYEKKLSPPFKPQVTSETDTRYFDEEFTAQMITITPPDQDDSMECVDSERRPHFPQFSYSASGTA
Source text: as §3

JAK3 = JAK3 (Homo sapiens, UniProt P52333); assay: Kinase inhibition test; type: biochemical
Sequence of JAK3 (P52333 whole entry, species assumed): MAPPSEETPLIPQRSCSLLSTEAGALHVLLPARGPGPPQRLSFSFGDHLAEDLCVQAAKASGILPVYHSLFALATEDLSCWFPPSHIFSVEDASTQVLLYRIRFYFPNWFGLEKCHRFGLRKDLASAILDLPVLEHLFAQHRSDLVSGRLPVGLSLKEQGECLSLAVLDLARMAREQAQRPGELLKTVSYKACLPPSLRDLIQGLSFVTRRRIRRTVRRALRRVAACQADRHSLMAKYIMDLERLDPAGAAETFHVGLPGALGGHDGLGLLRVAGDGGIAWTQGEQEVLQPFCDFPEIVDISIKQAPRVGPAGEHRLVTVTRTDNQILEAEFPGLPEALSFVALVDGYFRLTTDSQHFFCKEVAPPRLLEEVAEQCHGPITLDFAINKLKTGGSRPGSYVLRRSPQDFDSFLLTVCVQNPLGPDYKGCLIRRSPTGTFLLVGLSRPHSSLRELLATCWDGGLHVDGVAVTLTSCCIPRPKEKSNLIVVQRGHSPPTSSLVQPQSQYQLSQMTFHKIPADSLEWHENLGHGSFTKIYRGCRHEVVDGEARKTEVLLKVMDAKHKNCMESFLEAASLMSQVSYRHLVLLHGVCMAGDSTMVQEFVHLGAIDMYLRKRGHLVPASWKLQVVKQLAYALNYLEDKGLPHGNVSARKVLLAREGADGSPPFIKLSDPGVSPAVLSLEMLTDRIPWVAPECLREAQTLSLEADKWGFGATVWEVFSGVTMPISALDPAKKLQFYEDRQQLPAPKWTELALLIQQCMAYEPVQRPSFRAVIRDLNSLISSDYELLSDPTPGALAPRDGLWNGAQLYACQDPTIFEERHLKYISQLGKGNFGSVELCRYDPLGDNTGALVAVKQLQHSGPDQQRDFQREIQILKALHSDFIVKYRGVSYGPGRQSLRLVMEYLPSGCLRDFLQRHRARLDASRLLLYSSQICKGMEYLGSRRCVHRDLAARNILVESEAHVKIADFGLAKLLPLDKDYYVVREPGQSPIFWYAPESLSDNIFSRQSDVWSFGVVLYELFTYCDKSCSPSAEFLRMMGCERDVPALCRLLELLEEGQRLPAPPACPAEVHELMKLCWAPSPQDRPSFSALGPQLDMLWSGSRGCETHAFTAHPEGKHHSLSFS
Source text: as §3

EGFR = EGFR (Homo sapiens, UniProt P00533); assay: Kinase inhibition test; type: biochemical
Source text: as §3

PI 3-Kγ = PI 3-Kγ (Homo sapiens, UniProt P48736); assay: Kinase inhibition test; type: biochemical
Source text: as §3

IGF-1R = IGF-1R (Homo sapiens, UniProt P08069); assay: Kinase inhibition test; type: biochemical
Sequence of IGF-1R (P08069 31-1367, species assumed): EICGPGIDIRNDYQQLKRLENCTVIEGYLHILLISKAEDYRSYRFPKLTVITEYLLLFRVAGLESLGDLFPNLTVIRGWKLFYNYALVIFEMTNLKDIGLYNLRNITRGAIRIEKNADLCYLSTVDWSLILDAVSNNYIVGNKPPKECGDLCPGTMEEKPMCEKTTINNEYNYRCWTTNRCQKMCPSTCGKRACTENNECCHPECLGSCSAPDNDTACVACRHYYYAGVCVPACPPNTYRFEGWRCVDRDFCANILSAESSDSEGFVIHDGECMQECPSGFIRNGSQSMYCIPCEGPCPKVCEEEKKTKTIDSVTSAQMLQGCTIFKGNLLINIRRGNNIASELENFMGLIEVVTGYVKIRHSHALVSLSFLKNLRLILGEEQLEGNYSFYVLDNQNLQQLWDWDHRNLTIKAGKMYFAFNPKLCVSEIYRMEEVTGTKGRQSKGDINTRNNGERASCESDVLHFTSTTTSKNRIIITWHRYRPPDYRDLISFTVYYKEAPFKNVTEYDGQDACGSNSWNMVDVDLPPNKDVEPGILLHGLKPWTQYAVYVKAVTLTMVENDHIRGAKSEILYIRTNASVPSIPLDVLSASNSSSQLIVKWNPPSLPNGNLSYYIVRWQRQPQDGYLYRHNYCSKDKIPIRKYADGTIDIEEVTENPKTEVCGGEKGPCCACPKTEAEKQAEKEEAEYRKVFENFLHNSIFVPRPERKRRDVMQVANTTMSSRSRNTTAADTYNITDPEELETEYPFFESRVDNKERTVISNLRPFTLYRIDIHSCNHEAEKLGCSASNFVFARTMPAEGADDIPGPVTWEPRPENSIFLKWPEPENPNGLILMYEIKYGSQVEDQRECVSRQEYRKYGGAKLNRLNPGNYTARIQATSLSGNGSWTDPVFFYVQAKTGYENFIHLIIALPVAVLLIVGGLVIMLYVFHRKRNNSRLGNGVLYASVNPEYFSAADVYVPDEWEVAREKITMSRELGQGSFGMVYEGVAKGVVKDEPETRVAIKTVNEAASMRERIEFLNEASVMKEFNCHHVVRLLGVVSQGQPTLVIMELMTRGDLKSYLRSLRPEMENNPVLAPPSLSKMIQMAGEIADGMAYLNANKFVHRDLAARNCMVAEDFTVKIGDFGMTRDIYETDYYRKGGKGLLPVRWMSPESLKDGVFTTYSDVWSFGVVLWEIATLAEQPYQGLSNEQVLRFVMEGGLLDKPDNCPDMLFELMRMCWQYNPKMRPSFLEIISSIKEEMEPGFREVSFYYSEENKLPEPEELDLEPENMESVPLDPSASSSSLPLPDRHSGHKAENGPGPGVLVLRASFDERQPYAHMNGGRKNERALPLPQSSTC
Source text: as §3

PAK2 = PAK2 (Homo sapiens, UniProt Q13177); assay: Kinase inhibition test; type: biochemical
Source text: as §3

GSK3α = GSK3α (Homo sapiens, UniProt P49840); assay: Kinase inhibition test; type: biochemical
Sequence of GSK3α (P49840 whole entry, species assumed): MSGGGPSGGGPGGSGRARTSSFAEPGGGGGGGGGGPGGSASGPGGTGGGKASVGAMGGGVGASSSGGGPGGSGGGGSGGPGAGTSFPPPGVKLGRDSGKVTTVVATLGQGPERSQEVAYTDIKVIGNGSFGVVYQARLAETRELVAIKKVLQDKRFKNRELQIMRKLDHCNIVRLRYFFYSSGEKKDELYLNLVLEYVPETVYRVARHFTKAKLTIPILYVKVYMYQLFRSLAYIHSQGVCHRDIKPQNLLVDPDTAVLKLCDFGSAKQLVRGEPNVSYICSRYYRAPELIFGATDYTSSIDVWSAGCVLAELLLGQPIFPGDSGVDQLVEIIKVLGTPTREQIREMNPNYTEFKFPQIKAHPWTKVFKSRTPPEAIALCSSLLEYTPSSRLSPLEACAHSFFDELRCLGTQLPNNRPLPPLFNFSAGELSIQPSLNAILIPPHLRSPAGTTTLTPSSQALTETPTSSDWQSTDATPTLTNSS
Source text: as §3

SCT adult rats [3] = assay: Lumbar spinal circuitry after SCT (c-Fos and synapsin-1 immunostaining); type: in vivo, rat
Method: as §1
as §2, with “For each site, injections were performed at two different depths (1.2 mm and 1.6 mm), and 3 μl of 10% BDA was injected at a rate of 0.15 μl/min using a micro-injector. Three weeks after the BDA injection, rats were sacrificed and used for immunohistochemistry.” left out

[4] = SM-345431 combined with treadmill training
[5] = SM-345431 via silicone DDS alone

**Q.** How did the “5-HT-positive axons penetrating the GFAP-negative scar tissue versus control” value (SCT adult rats [1]; [4]) turn out when `CC(=O)c1cc2c(=O)c3c(C(=O)O)c(O)c(O)cc3oc2c(C(C)=O)c1-c1coc2cc(O)c(O)c(C(=O)O)c2c1=O` [SM-345431, Vinaxanthone] was run?
**A.** significantly more 5-HT-positive axons penetrated the GFAP-negative scar tissue area

**Q.** And the “CST axon regeneration (BDA tracing)” value (SCT adult rats [1]; [4])?
**A.** no clear CST regeneration beyond the lesion epicenter was observed

**Q.** And the “number of GAP43 axons versus control” value (SCT adult rats [1]; [4])?
**A.** significantly increased

**Q.** And the “5-HT-positive axons penetrating the GFAP-negative scar tissue versus control” value (SCT adult rats [1]; [5])?
**A.** significantly more 5-HT-positive axons penetrated the GFAP-negative scar tissue area

**Q.** What about the “CST axon regeneration (BDA tracing)” value (SCT adult rats [1]; [5]) of the same compound?
**A.** no obvious CST regeneration beyond the lesion epicenter was observed

**Q.** What about the “number of GAP43 axons versus control” value (SCT adult rats [1]; [5]) of the same compound?
**A.** significantly increased

**Q.** And the “total immunostained area of vessels with lumen diameters larger than 20 μm versus control” value (SCT adult rats [2]; SM-345431 alone)?
**A.** significantly increased

**Q.** And the “total immunostained area of vessels with lumen diameters larger than 20 μm versus control” value (SCT adult rats [2]; [4])?
**A.** significantly increased

**Q.** And the RECA-1-positive areas (SCT adult rats [2]; SM-345431 combined with treadmill training, 3 mm caudal to the lesion epicenter, P < 0.05)?
**A.** significantly increased

**Q.** And the IC50 (ROCK-I)?
**A.** > 10 µM

**Q.** What about the IC50 (FGFR3) of the same compound?
**A.** 770 nM

**Q.** And the IC50 (EphA2)?
**A.** > 10 µM

**Q.** And the IC50 (PKCγ)?
**A.** > 10 µM

**Q.** What about the IC50 (MEK1) of the same compound?
**A.** > 10 µM

**Q.** And the IC50 (PKBα)?
**A.** > 10 µM

**Q.** And the IC50 (JAK3)?
**A.** > 10 µM

**Q.** What about the IC50 (EGFR) of the same compound?
**A.** 900 nM

**Q.** And the IC50 (PI 3-Kγ)?
**A.** > 10 µM

**Q.** What about the IC50 (IGF-1R) of the same compound?
**A.** > 10 µM

**Q.** And the IC50 (PAK2)?
**A.** > 10 µM

**Q.** And the IC50 (GSK3α)?
**A.** 2460 nM

**Q.** What about the “number of c-Fos + nuclei versus control SCI rats” value (SCT adult rats [3]; SM-345431 alone, L1-L5 levels, not statistically significant) of the same compound?
**A.** tended to be lower

**Q.** What about the “synapsin-1 expression at the lumbar enlargement versus control SCT group” value (SCT adult rats [3]; SM-345431 alone, P > 0.05) of the same compound?
**A.** No statistically significant difference

**Q.** And the “number of c-Fos + nuclei versus control SCT rats” value (SCT adult rats [3]; SM-345431 combined with treadmill training, L4 and L5 levels, P < 0.01)?
**A.** statistically significant decrease

**Q.** What about the “synapsin-1 expression at the lumbar enlargement” value (SCT adult rats [3]; SM-345431 combined with treadmill training, P < 0.01 vs control SCT, P < 0.05 vs SM-345431 group) of the same compound?
**A.** statistically significant increase

From PMC4008261, “Rewiring of regenerated axons by combining treadmill training with semaphorin3A inhibition” (Molecular Brain, 2014)
